# Data reported in patent US20160346392A1, “PULSE PHOTODYNAMIC TREATMENT OF SKIN CONDITIONS” (GALDERMA RESEARCH & DEVELOPMENT, priority 2013, published 2016).
# “Also recorded” adds a separate entry of the source. Where two headings read alike, the source gives them in different places.
# Assays:
# [1] = test system: acne; conditions: 20% ALA acid applied to back for 3 hours, 150 J/cm2 broad band light; cited from earlier work
# [2] = test system: acne; conditions: cream 16% wt. applied to face for 3 hours, non-coherent red light, repeated 2 weeks later; cited from earlier work
# [3] = Method A investigation of efficacy and inflammation with 30 min pulse exposure PDT; assay type: in vivo
# Method: (§1) The formation of PPIX after 3 hours is seen in FIG. 8, and the relation to inflammation is seen in FIG. 9. […] The results are illustrated in Column 3 in FIGS. 4, 5, 6, and 7. […] Pain level is not changed.
# [4] = test system: PpIX fluorescence; experiment: Metvix pulse time investigation (Method B) on healthy volunteers: PpIX fluorescence; assay type: in vivo, human; conditions: short (30 min) pulse vs conventional 3-hour exposure; Table 1 and FIG. 8
# Method: as §1
# Twenty-four healthy male volunteers of Scandinavian ancestry were included in the study (mean age 30 years, range 20-51). A treatment area was selected on the inside of both forearms of the volunteer. Each treatment area was divided into four minor treatment fields of the size 2×5 cm with at least 3 cm between each field using a prefabricated flexible template. In order to imitate skin lesions all fields were tape stripped 10 times with occlusive dressing before treatment (Tegaderm™ Roll, 3M, Glostrup, Denmark). […]
# All fields were covered with light-impermeable, occlusive dressing. […] During and after illumination pain was recorded. […]
# 5-MAL-induced PpIX fluorescence was depicted non-invasively using a fluorescence camera (Medeikonos AB, Gothenburg, Sweden). The amount of PpIX fluorescence was calculated from the photographs by the program MatLab® (MatLab®, MathWorks, Natic, US). The amount of fluorescence was measured before tape stripping and cream application (baseline) and before and after illumination.
# The photo bleaching is then the difference in PpIX fluorescence (AU) calculated from the pre and post illumination images.
"inflammation (erythema) ([3]; 30 min pulse exposure vs conventional 180 min exposure, FIGS. 6, 7)","pain level ([3]; 30 min pulse exposure vs conventional exposure, FIG. 4)",Structure (SMILES),efficacy in treatment of acne [1],side effects of treatment [1],efficacy in treatment of acne [2],side effects of treatment [2],"cure rate / efficacy ([3]; 30 min pulse exposure vs conventional exposure, FIG. 5)","PPIX concentration, pulse exposure versus conventional 3-hour exposure [4]"
,,"NCC(=O)CCC(=O)O [ALA, 5-amino-4-oxo-pentanoic acid]",effective for the treatment of acne,"erythema, hyperpigmentation and exfoliation were often seen after PDT treatment",,,,
less inflammation,not changed,"COC(=O)CCC(=O)CN [5-MAL, 5-ALA methyl ester]",,,effective in the treatment of acne,caused pain and induced severe inflammation,unchanged efficacy; also recorded: as efficient,clearly lower than for the conventional 3 hour exposure
